This assay concerns human LDL. Description: Inhibition of LDL lipid peroxidation (cupric sulfate-induced, thiobarbituric acid assay). It counts as biochemical. The settings on record: 250 μg human LDL, test compound 30 min at 42° C., cupric sulfate 12.5 μM, 37° C., 2.5 hours, read-out: ID50 (concentration of test compound required to inhibit 50% of LDL lipid peroxidation). On the procedure: The degree of inhibition of LDL lipid peroxidation was determined by the method of Yagi et al. [Vitamins 39, 105 (1968)].
A 0.5 mL solution containing 250 micrograms (μg) of human LDL was incubated with the test compound, in amounts varying from 0 to 30 μg, for 30 minutes at 42° C. To this mixture was added 1 mL of a cupric sulfate solution (final concentration 12.5 μM) and the mixture was incubated at 37° C. for 2.5 hours. The amount of peroxidation of LDL lipid was determined by the thiobarbituric acid assay. The concentration of test compound required to inhibit 50% of LDL lipid peroxidation (ID50) was determined.

Consider `CC(C)(C)c1cc(SC[Si](C)(C)C)cc(C(C)(C)C)c1O` [Compound A], for which the IC50 is 2800 nM.
To `CC(C)(C)c1cc(SC[Si](C)(C)c2ccccc2)cc(C(C)(C)C)c1O` [Compound B] belongs 3000 nM.

The record behind these values is US5532400A, “2,6-di-alkyl-4-silyl-phenols as antiatheroscelerotic agents” (Merrell Pharmaceuticals Inc., priority 1994, dated 1996).
